Laboratory results from patent US12582689B2, “Use of terpenoids in the treatment or prevention of fibrotic diseases” (ARJIL BIOTECH HOLDING COMPANY LIMITED, priority 2020, dated 2026).

Assays:
Assay type in all cases: in vivo
lung MPO activity = experiment: Bleomycin-induced pulmonary fibrosis in mice: lung myeloperoxidase (MPO) assay; conditions: BLM mice; compared with BLM group, p<0.001; FIG. 36
Description: (§1) Mice were divided into fifth groups with 5 animals per group according to body weight: control group, BLM group, BLM+DEX group (7.5 mg/kg), BLM+ACH dosage group (50 mg/kg), and BLM+ACM dosage group (2.5 mg/kg), BLM+ACH dosage group (50 mg/kg), and BLM+ACM dosage group (25 mg/kg) BLM+AH dosage group (50 mg/kg), and BLM+AM dosage group (25 mg/kg) BLM+BH dosage group (50 mg/kg), and BLM+BM dosage group (25 mg/kg) BLM+CH dosage group (50 mg/kg), and BLM+CM dosage group (25 mg/kg) BLM+DH dosage group (50 mg/kg), and BLM+DM dosage group (25 mg/kg) BLM+EH dosage group (50 mg/kg), and BLM+EM dosage group (25 mg/kg) BLM. Pulmonary fibrosis (PF) was established in mice via a single intratracheal administration of BLM at 7.5 mg/kg mg/kg body weight. Different doses of samples were intragastrically administered daily for 21 days after BLM injury, and DEX was used as the positive control. Control and model groups received an equal volume of vehicle (0.9% NaCl) using the same schedule and route of administration.
The pulmonary MPO activity was a reliable index for estimating the infiltration of inflammatory cells in lungs. The lung tissues were homogenized and the MPO levels were detected with the kits according to manufacturer's instruction.

[1] = test system: bleomycin-induced pulmonary fibrosis in mice; experiment: Bleomycin-induced pulmonary fibrosis in mice: body and lung weight, lung index, histopathology, hydroxyproline; conditions: BLM mice; for hydroxyproline (HP) content in lung tissue: extract 1.0 g/kg, compound high-dose groups (50 mg/kg), p<0.001, FIG. 34; for Pulmonary index [(lung weight/body weight)×100]: BLM group 1.60 ± 0.02
Description: Specific pathogen-free ICR mice (males) (body weights 18-22 g) were purchased from the BioLASCO Taiwan Co., Ltd. (Taipei, Taiwan). The animals were housed in Plexiglas cages at a constant temperature of 22±1° C. and a relative humidity of 55±5% on a 12 h dark-light cycle for at least 2 weeks before the experiment. Animals were provided food and water ad libitum. All experimental procedures were performed according to the guidelines of the Institutional Animal Ethics Committee, and the protocol was approved by the Committee for the Purpose of Control and Supervision of Experiments on Animals.
Pulmonary fibrosis (PF) was established in mice via a single intratracheal administration of BLM at 7.5 mg/kg mg/kg body weight. Different doses of samples were intragastrically administered daily for 21 days after BLM injury, and DEX was used as the positive control. Control and model groups received an equal volume of vehicle (0.9% NaCl) using the same schedule and route of administration.
Mouse body weights were recorded daily. Mice were sacrificed on the 21th day using excess chloral hydrate hydrochloride anesthesia. Blood was obtained for ELISA analyses, and whole lungs were removed and weighed. […] The pulmonary coefficient was calculated using the following equation: lung weight/body weight×100%

[2] = test system: cisplatin-induced renal injury in C57BL/6 mice; experiment: Mice model of cisplatin-induced renal injury: serum CRE/BUN and kidney histopathology; conditions: for renal protection: normalization of serum CRE and BUN: cisplatin-treated mice, extracts at 1000 mg/kg, compound doses not given, p<0.001 vs cisplatin group
Description: Determination of biochemical parameters Serum creatinine and serum urea are assessed using colorimetric kits according to manufacturer's instructions. Kits of the former markers are purchased from (HUMAN Diagnostics Worldwide, Magdeburg, Germany) with a chemical analyzer (Roche Diagnostics, Cobas Mira Plus, Rotkreuz, Switzerland).
Kidney histopathology The anterior portion of the […] from each mouse is fixed in 10% formaldehyde phosphate butler, embedded in paraffin, cut into 5 μm sections, and then treated with an hematoxylin and eosin (H&E) stain for histological examination under the light microscopy (Nikon, ECLIPSE, TS100, Tokyo, Japan). Images are captured with a digital camera (NIS-Elements D 2.30, SP4, Build 387) at an original magnification of 400×.
(§2) Seven-to-eight-week-old male C57BL/6 mice are obtained from the BioLASCO Taiwan Co., Ltd, (Taipei, Taiwan). The animals are housed in Plexiglas cages at a constant temperature of 22±1° C. and a relative humidity of 55±5% on a 12 h dark-light cycle for at least 2 weeks before the experiment. Animals are provided food and water ad libitum. All experimental procedures are performed according to the guidelines of the institutional Animal Ethics Committee, and the protocol is approved by the Committee for the Purpose of Control and Supervision of Experiments on Animals.
Renal fibrosis is induced via multiple injections of low-dose cisplatin. Intraperitoneal injections of cisplatin (5 mg/kg/injection; P4394, Sigma-Aldrich, St Louis, MO) are performed at 0, 1, and 3 weeks, for a total of 3 injections. Mice are sacrificed at 6 weeks after the first dose of cisplatin (n=6). To analyze the effects of samples, mice are given daily intraperitoneal injections for 7 days, starting from 4 weeks after first dose of cisplatin, and sacrificed at 4 weeks (n=6).

[3] = test system: TNF-α, IL-1β, IL-6 and TGF-β levels in serum; experiment: Cisplatin-induced renal injury mice: serum pro-inflammatory cytokines by ELISA; conditions: cisplatin-treated mice, extract at 1000 mg/kg, FIG. 4
Description: TNF-α, IL-6, and IL-1β cytokines in serum The serum concentration of the pro-inflammatory cytokines (i.e. tumor necrosis factor-α (TNF-α), interleukin-6 ([…]), and IL-1β) in serum are assessed with relevant enzyme-linked immunosorbent assay ([…]) kits (Biosource International Inc., Sunnyvale, CA, USA), based on the manufacturer's instructions.
as §2
Renal fibrosis is induced via multiple injections of low-dose cisplatin. Intraperitoneal injections of cisplatin (5 mg/kg/injection; P4394, Sigma-Aldrich, St Louis, MO) are performed at 0, 1, and 3 weeks, for a total of 3 injections. Mice are sacrificed at 6 weeks after the first dose of cisplatin (n=6). To analyze the effects of samples, mice are given daily intraperitoneal injections for 7 days, starting from 4 weeks after first dose of cisplatin, and sacrificed at 4 weeks (n=6). […]

[4] = test system: CCl4-induced chronic liver fibrosis in SD rats; experiment: CCl4-induced chronic liver fibrosis in rat
Description: Blood samples are collected at week 0, 2, 4, 6, and 8. The animals are sacrificed at the end of the 8-week for histopathological examinations. FIGS. 7A, 7B, 7C depict delta weight, liver weight, and liver/body-weight ratio, respectively.
The level of clinical biochemistry such as aspartate aminotransferase (AST), alanine aminotransferase (ALT), is evaluated to determine the enzymatic activities of the livers of the control groups and the experimental groups (shown in FIGS. 8A-8C).

[5] = test system: TNF-α, IL-1β, IL-6 and TGF-β; experiment: Bleomycin-induced pulmonary fibrosis in mice: pro-inflammatory cytokines by ELISA; conditions: extract 1.0 g/kg, BH and DH (50 mg/kg), p<0.001, FIG. 35
Description: as §1, with “administration. […]” for “administration.”
The serum concentration of the pro-inflammatory cytokines (i.e. tumor necrosis factor-α (TNF-α), interleukin-6 (IL-6), and IL-1β) in serum were assessed with relevant enzyme-linked immunosorbent assay (ELISA) kits (Biosource International Inc., Sunnyvale, CA, USA), based on the manufacturer's instructions. […]

Molecule | lung MPO activity (lung MPO activity) | hydroxyproline (HP) content in lung tissue [1] | renal protection: normalization of serum CRE and BUN [2] | TNF-α, IL-1β, IL-6 and TGF-β production after BLM challenge [5] | also measured
C=C(CC[C@@H](C)[C@H]1CC[C@H]2C3=C(C(=O)C[C@]12C)[C@@]1(C)CC[C@@H](O)[C@](C)(O)[C@@H]1C[C@@H]3O)[C@@H](C)C(=O)O (racemic) [AR101-DS1, RS-Antcin K] | evidently suppressed the MPO activities | – | – | – | –
C=C(CC[C@@H](C)[C@H]1CC[C@H]2C3=C(C(=O)C[C@]12C)[C@@]1(C)CC[C@@H](O)[C@](C)(O)[C@@H]1C[C@@H]3O)[C@@H](C)C(=O)O (stereo in doubt) [AR101-DS1, RS-Antcin K] | – | reduced lung HP | – | – | –
C=C1C(=O)O[C@H]2/C=C(\C)CC3C=C(CC/C=C(\C)CC[C@H]12)C(=O)O3 (stereo partly shown) [AR100-DS1, Ovatodiolide] | evidently suppressed the MPO activities | reduced lung HP | significant renal protection effect | improved TNF-α, IL-1β, IL-6 and TGF-β production | kidney histopathology (H&E): necrosis and inflammatory infiltrating cells ([2]; cisplatin-stimulated mice, extract at 1000 mg/kg, FIG. 3): significantly improved necrosis and inflammatory infiltrating cells; serum NO, TNF-α, IL-1β and IL-6 production after cisplatin challenge [3]: improved NO, TNF-α, IL-1β, and IL-6 production; liver weight ([4]; 50 mg/kg, SD rats, 8 weeks CCl4, compared to Vehicle and Naïve group): significantly larger; liver appearance ([4]; 50 mg/kg, after 8 weeks of CCl4 induction): smooth surface without atrophy and sclerosis; serum AST and ALT level ([4]; 50 mg/kg, at W6 and W8, compared with the vehicle group): less AST and ALT increases; CCl4-induced liver injury, overall ([4]; SD rats, 8 weeks CCl4): potential to partially repair CCl4-induced liver injury
C=C(CC[C@@H](C(=O)O)[C@H]1CC[C@@]2(C)C3=CC[C@H]4C(C)(C)[C@@H](O)CC[C@]4(C)C3=CC[C@]12C)C(C)C [AR101-DS4, Dehydroeburicoic Acid] | – | – | significant renal protection effect | – | –
Dehydrosulphurenic acid/Sulphurenic acid [AR101-DS2] | evidently suppressed the MPO activities | reduced lung HP | – | improved TNF-α, IL-1β, IL-6 and TGF-β production | Pulmonary index [(lung weight/body weight)×100] ([1]; 25 mg/kg daily for 21 days): 1.26 ± 0.03; Pulmonary index [(lung weight/body weight)×100] ([1]; 50 mg/kg daily for 21 days, 50 mg/kg): 1.01 ± 0.02; Pulmonary index [(lung weight/body weight)×100] ([1]; 50 mg/kg daily for 21 days, listed as BH, 50 mg/kg): significant decrease
